Results published in ChEMBL document CHEMBL1201862, “PubChem BioAssay data set” (2004).
Where a name gives a salt, the structure may show the parent alone.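 Values below derive from 48-hour exposures of cells grown in 96-well plates, with endpoints linearly interpolated between the two concentrations bracketing the appropriate inhibition level. GI50 = concentration required for 50% inhibition of growth.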 Calls of active or inactive are those of the source. Cut-off read from the data, not from the text of the source: active = GI50 up to about 1.1 µM and inactive = higher.

Legend:
Assay in all cases: inhibition of tumour cell growth, NCI panel, 48 h
A498 = test system: A498
A549 = test system: A549
CAKI-1 = test system: CAKI-1
CCRF-CEM = test system: CCRF-CEM
HCT-116 = test system: HCT-116
HL-60 = test system: HL-60
HOP-62 = test system: HOP-62
Hs-578T = test system: Hs-578T
M14 = test system: M14
MDA-MB-231 = test system: MDA-MB-231
NCI-H460 = test system: NCI-H460
NCI-H522 = test system: NCI-H522
PC-3 = test system: PC-3
RPMI-8226 = test system: RPMI-8226
SF-268 = test system: SF-268
SK-MEL-5 = test system: SK-MEL-5
SR = test system: SR
UACC-62 = test system: UACC-62
UO-31 = test system: UO-31
MOLT-4 = test system: MOLT-4

Measured: GI50

S=C1NCN2CCN(CC2)CNC(=S)C(=S)NCN2CCN(CC2)CNC1=S
inactive: A498 > 100 µM | A549 36.8 µM | CAKI-1 35.2 µM | CCRF-CEM 18.5 µM | HCT-116 79.4 µM | HL-60 24.2 µM | HOP-62 37.9 µM | Hs-578T 54.1 µM | M14 30.1 µM | MDA-MB-231 > 100 µM | NCI-H460 20.7 µM | NCI-H522 31 µM | PC-3 35.2 µM | RPMI-8226 23.7 µM | SF-268 61.2 µM | SK-MEL-5 39.5 µM | SR 58.9 µM | UACC-62 67.8 µM | UO-31 25.6 µM

Oc1ccccc1-n1nc2ccc3nonc3c2n1
inactive: A549 > 100 µM | CAKI-1 > 100 µM | CCRF-CEM > 100 µM | HCT-116 > 100 µM | HL-60 > 100 µM | HOP-62 90.2 µM | Hs-578T > 100 µM | M14 > 100 µM | MDA-MB-231 > 100 µM | MOLT-4 > 100 µM | NCI-H460 > 100 µM | NCI-H522 > 100 µM | PC-3 > 100 µM | RPMI-8226 > 100 µM | SF-268 > 100 µM | SK-MEL-5 > 100 µM | SR > 100 µM | UACC-62 > 100 µM | UO-31 77.4 µM

O=C(/C=C/c1ccsc1)c1ccc(Cl)cc1
inactive: A498 45 µM | A549 > 100 µM | CAKI-1 > 100 µM | CCRF-CEM 21.9 µM | HCT-116 23.7 µM | HL-60 19.1 µM | HOP-62 > 100 µM | Hs-578T 57.8 µM | M14 80.7 µM | MDA-MB-231 63.7 µM | MOLT-4 19.2 µM | NCI-H460 > 100 µM | PC-3 70.8 µM | RPMI-8226 21 µM | SF-268 79.4 µM | SK-MEL-5 > 100 µM | SR 18.7 µM | UACC-62 41.6 µM | UO-31 31.1 µM

C1COCCOP2(N3CC3)=NP(N3CC3)(=NP(N3CC3)(N3CC3)=N2)OCCOCCO1 (stereo not given)
inactive: A498 > 100 µM | A549 > 100 µM | CAKI-1 > 100 µM | CCRF-CEM 77.3 µM | HCT-116 > 100 µM | HL-60 > 100 µM | HOP-62 > 100 µM | Hs-578T > 100 µM | M14 > 100 µM | MDA-MB-231 > 100 µM | MOLT-4 > 100 µM | NCI-H522 > 100 µM | PC-3 > 100 µM | RPMI-8226 > 100 µM | SF-268 > 100 µM | SK-MEL-5 > 100 µM | SR 50.4 µM | UACC-62 > 100 µM | UO-31 > 100 µM

CCO/C(Cc1ccc(Cl)cc1)=N/NC(N)=S
inactive: A498 > 100 µM | A549 > 100 µM | CAKI-1 > 100 µM | CCRF-CEM > 100 µM | HCT-116 > 100 µM | HOP-62 > 100 µM | Hs-578T > 100 µM | M14 > 100 µM | MDA-MB-231 > 100 µM | MOLT-4 > 100 µM | NCI-H460 > 100 µM | PC-3 > 100 µM | SK-MEL-5 84.5 µM | SR > 100 µM | UACC-62 > 100 µM | UO-31 72.9 µM

O=c1[nH]c(=O)n(C2OC(CO)C(O)C2O)c2ccsc12 (stereo not given)
inactive: A498 > 100 µM | A549 > 100 µM | CAKI-1 > 100 µM | CCRF-CEM > 100 µM | HCT-116 > 100 µM | HL-60 > 100 µM | HOP-62 > 100 µM | Hs-578T > 100 µM | M14 > 100 µM | MDA-MB-231 > 100 µM | MOLT-4 > 100 µM | NCI-H460 > 100 µM | NCI-H522 > 100 µM | PC-3 > 100 µM | RPMI-8226 > 100 µM | SF-268 > 100 µM | SK-MEL-5 > 100 µM | SR > 100 µM | UO-31 > 100 µM

COc1cccc(N2C(=O)C3CC(CC(C)(C)C)c4c([nH]c5ccccc45)C3C2=O)c1 (stereo not given)
inactive: A498 > 10 µM | A549 > 10 µM | CAKI-1 > 10 µM | CCRF-CEM > 10 µM | HCT-116 4.93 µM | HL-60 > 10 µM | HOP-62 9.16 µM | Hs-578T 3.5 µM | M14 5.82 µM | MDA-MB-231 4.92 µM | MOLT-4 > 10 µM | NCI-H460 6.47 µM | NCI-H522 > 10 µM | PC-3 > 10 µM | RPMI-8226 > 10 µM | SF-268 > 10 µM | SK-MEL-5 > 10 µM | SR 1.48 µM | UACC-62 > 10 µM

CC(C)(C)OC(=O)N1C/C=C\C(=O)C2(OCCO2)c2ccccc21
inactive: A498 > 100 µM | A549 35.2 µM | CAKI-1 33.7 µM | CCRF-CEM 25.4 µM | HCT-116 17.4 µM | HOP-62 48.9 µM | Hs-578T 45 µM | M14 20.7 µM | MDA-MB-231 19.6 µM | MOLT-4 19.5 µM | NCI-H460 22.7 µM | NCI-H522 24 µM | PC-3 29.4 µM | RPMI-8226 20.4 µM | SF-268 34 µM | SK-MEL-5 16.5 µM | SR 25.8 µM | UO-31 17.7 µM

COc1cc2c(cc1OCc1ccccc1)NC(=O)[C@@H]1C[C@@H](O)CN1C2=O
inactive: A498 > 100 µM | A549 > 100 µM | CAKI-1 > 100 µM | CCRF-CEM > 100 µM | HCT-116 > 100 µM | HOP-62 47.6 µM | Hs-578T > 100 µM | M14 > 100 µM | MDA-MB-231 75 µM | MOLT-4 > 100 µM | NCI-H460 > 100 µM | NCI-H522 > 100 µM | PC-3 > 100 µM | RPMI-8226 > 100 µM | SF-268 > 100 µM | SK-MEL-5 > 100 µM | SR 47 µM | UACC-62 > 100 µM | UO-31 > 100 µM

CC1(C)C(/C=N\O)=[N+]([O-])C(C)(C)N1O
inactive: A549 > 100 µM | CAKI-1 > 100 µM | CCRF-CEM 89.7 µM | HCT-116 > 100 µM | HL-60 31.6 µM | HOP-62 > 100 µM | Hs-578T > 100 µM | M14 > 100 µM | MDA-MB-231 > 100 µM | NCI-H460 > 100 µM | PC-3 > 100 µM | RPMI-8226 > 100 µM | SF-268 > 100 µM | SK-MEL-5 > 100 µM | SR > 100 µM | UACC-62 > 100 µM | UO-31 > 100 µM

Cc1ccc(C(=O)/C=C/N2CCN(c3cccc(C(F)(F)F)c3)CC2)cc1
inactive: A498 15.8 µM | A549 22.9 µM | CAKI-1 17.8 µM | HCT-116 16.7 µM | HL-60 22.8 µM | HOP-62 20.7 µM | Hs-578T 24 µM | M14 16.9 µM | MDA-MB-231 14.6 µM | MOLT-4 15.1 µM | NCI-H460 21.7 µM | NCI-H522 17.5 µM | PC-3 25.1 µM | RPMI-8226 31.9 µM | SF-268 17.3 µM | SK-MEL-5 14.9 µM | SR 19.8 µM | UACC-62 19.3 µM | UO-31 17.5 µM

CC1CN(CCO)CCN1c1ccccc1 (stereo not given)
inactive: A498 > 100 µM | A549 > 100 µM | CAKI-1 > 100 µM | HCT-116 > 100 µM | HL-60 42 µM | HOP-62 > 100 µM | Hs-578T > 100 µM | M14 > 100 µM | MDA-MB-231 > 100 µM | MOLT-4 1.41 µM | NCI-H460 > 100 µM | NCI-H522 > 100 µM | PC-3 > 100 µM | RPMI-8226 > 100 µM | SF-268 > 100 µM | SK-MEL-5 > 100 µM | SR > 100 µM | UACC-62 > 100 µM | UO-31 > 100 µM

CC(C)[Si](OC1=CCC[C@H]2NC(=O)[C@@H](Cc3ccc([N+](=O)[O-])cc3)[C@@]12C)(C(C)C)C(C)C
inactive: A549 1.85 µM | CAKI-1 13.2 µM | CCRF-CEM 2.86 µM | HCT-116 3.68 µM | HL-60 3.44 µM | HOP-62 4.3 µM | Hs-578T 7.31 µM | M14 12.5 µM | MDA-MB-231 6.5 µM | MOLT-4 3.72 µM | NCI-H460 3.35 µM | NCI-H522 4.95 µM | PC-3 3.4 µM | SF-268 7.52 µM | SK-MEL-5 2.3 µM | SR 2.79 µM | UACC-62 14.2 µM | UO-31 13.4 µM

Cc1ccc(/N=N/c2cc(=O)[nH]c(=O)[nH]2)cc1C
inactive: A498 18.4 µM | A549 18.5 µM | CCRF-CEM 2.2 µM | HCT-116 5.58 µM | HL-60 3.01 µM | HOP-62 17.7 µM | Hs-578T > 10 µM | M14 14.2 µM | MDA-MB-231 11.9 µM | MOLT-4 3.94 µM | NCI-H460 17.2 µM | PC-3 2.71 µM | RPMI-8226 3.01 µM | SF-268 19.8 µM | SK-MEL-5 15.8 µM | SR 3.6 µM | UO-31 17.9 µM

NCCS [CYSTEAMINE HYDROCHLORIDE]
inactive: A549 > 100 µM | CAKI-1 > 100 µM | CCRF-CEM > 100 µM | HCT-116 > 100 µM | HL-60 > 100 µM | HOP-62 > 100 µM | Hs-578T > 100 µM | M14 > 100 µM | MDA-MB-231 > 100 µM | MOLT-4 > 100 µM | NCI-H460 > 100 µM | NCI-H522 > 100 µM | PC-3 > 100 µM | RPMI-8226 > 100 µM | SF-268 > 100 µM | SK-MEL-5 > 100 µM | SR > 100 µM | UO-31 > 100 µM
